Key:
Format in all cases: in vivo, mouse
[1] = system: wild-type and α1G −/− mice; assay: SWD generation in epidural EEG after systemic injection of absence seizure-inducing agents; conditions: for SWD generation in epidural EEG: α1G −/− mice
Excerpt: To examine the role of α1G in the generation of SWDs in vivo, the present inventors systematically [“systemic” and “systematic” are different] injected into α1G −/− mice and wild-type mice either γ-butyrolactone, a prodrug of γ-hydroxybutyric acid, or (RS)-baclofen. Absence seizures induced by these drugs are characterized by bilaterally synchronous SWDs and have been associated with behavioral arrest, facial myoclonus, and vibrissal twitching.

[2] = system: wild-type and α1G −/− mice; assay: Thalamic field activity (depth electrodes) and epidural EEG after (RS)-baclofen in freely moving animals; conditions: 30 mg/kg i.p.
Description: To confirm the result of Example 6, the present inventors examined the field activity of thalamic nuclei using depth electrodes in freely moving animals. […] To examine the thalamic SWDs, the present inventors injected (RS)-baclofen i.p. at 30 mg/kg instead of the dose, i.e., 20 mg/kg, used previously (FIG. 4B). […] The administration of baclofen synchronized all thalamic activities into 2-3 Hz SWDs in wild-type nice (FIG. 5B, left). In the α1G −/− thalamus, however, baclofen reduced the amplitudes of peaks in a wide range of frequency, as if it caused general desynchronization (FIG. 5B, right).

[3] = system: wild-type and α1G −/− mice; assay: Convulsive seizures induced by 4-AP (EEG and behavioral seizure score)
Excerpt: The present inventors tested whether the seizure resistance of α1G −/− mice was specific to absence seizures. […] The EEG pattern of these ictal discharges was quite different from that observed in the spike-and-wave seizures induced by baclofen or bicuculline.
The below scores grade the seizures according to behavioral seizures as monitored by video.
1: mild tremors of the head
2: whole body tremors with loss of postural control
3: erratic running, erratic jumping, or tonic-clonic movement of the limbs
4: tonic extension of the whole body or death

[4] = system: wild-type and α1G −/− mice; assay: EEG recording of cortex and thalamus after injection of BMB; conditions: 10 mg/kg into the peritoneal cavity
Description: Systematic administration or focal injection of bicuculline into the cortex has been known to evoke SWDs mainly originating from the territory of the cortex (Steriade and Contreras, Journal of Neurophysiology, 1998, 80, 1439-55). To determine the role of α1G in the cortex-dependent mechanism of SWDs, the present inventors examined the EEG pattern after injection of BMB into the peritoneal cavity of mice at 10 mg/kg.
However, because of the complexity of the bicuculline-induced seizures, the present inventors could not conclude whether there is any quantitative difference in the amplitude of the SWDs or in the time lag of SWD occurrences for the two types of mice (i.e., wild-type and α1G −/−). […] Thus, it seems that the BMB-induced SWDs observed here are also associated with other types of generalized seizures.

SMILES: NCC(CC(=O)O)c1ccc(Cl)cc1 (racemic) [(RS)-baclofen]
- frequency of SWDs in epidural EEG ([1]; wild-type mice, 20 mg/kg): 3-4 Hz
- SWD generation in epidural EEG ([1]; 20 mg/kg): marked resistance to the generation of SWDs
- frequency of SWDs in epidural EEG ([2]; duration of SWDs significantly increased versus 20 mg/kg): 2-3 Hz
- frequency of SWDs in thalamus (field recording) ([2]; wild-type thalamus): 2-3 Hz
- SWD generation in thalamus (field recording) ([2]; α1G −/− thalamus): no such synchronized activities were observed

SMILES: Nc1ccncc1 [4-AP, 4-aminopyridine]
- mice that developed seizures ([3]; 2 mg/kg into the peritoneal cavity, C57BL/6J and 129/sv): 25%
- mice that developed tonic-clonic seizures ([3]; 10 mg/kg into the peritoneal cavity, C57BL/6J and 129/sv): All of the mice
- time to vigorous ictal discharges after injection ([3]; 10 mg/kg, both wild-type and α1G −/− mice): 30 to 40 min
- severity of induced seizures graded by behavioral symptoms, wild-type versus α1G −/− mice ([3]; seizure score 0-4, 2 mg/kg and 10 mg/kg): no quantitative difference

SMILES: C[N+]1(C)CCc2cc3c(cc2[C@H]1[C@@H]1OC(=O)c2c1ccc1c2OCO1)OCO3.[Br-] [BMB, bicucullinemethobromide]
- time to initiation of seizure spikes in the cortex [4]: within five minutes
- SWD generation in EEG ([4]; α1G −/− mice): exhibited SWD-like activities

SMILES: O=C1CCCO1 [γ-butyrolactone]
- frequency of paroxysmal SWDs in epidural EEG ([1]; wild-type mice, 70 mg/kg): 3-5 Hz
- SWD generation in epidural EEG ([1]; 70 mg/kg): did not display typical SWD patterns

From patent publication US7626076B2, “Transgenic mouse whose genome comprises a homozygous disruption of its α1G gene, a method of preparing the same and use thereof” (Orient Bio., Inc., priority 2002, dated 2009)
